Assay results as given in patent US5977133A, “Pyridone antibiotic with improved safety profile” (priority 1998, dated 1999).

What was measured:
[1] = system: S. pyogenes; assay: In vitro MIC, agar dilution; assay type: cell-based; conditions: S. pyogenes, 21 isolates
[2] = system: C. difficile; assay: In vitro MIC, agar dilution; assay type: cell-based; conditions: C. difficile, 10 isolates
[3] = system: E. coli; assay: In vitro MIC, agar dilution; assay type: cell-based; conditions: 25 isolates
Experimental: (§1) Each plate was inoculated with 1:100 (or 1:10 for slow-growing strains, primarily Micrococcus and Streptococcus) dilutions of up to 32 different microorganisms, using a Steers replicator block calibrated to deliver approximately 10^4 colony forming units (CFU's). The inoculated plates were incubated at from about 35° C. to about 37 ° C. for approximately 20-24 hours. In addition, a control plate using BHI agar containing no test compound was prepared and incubated at the beginning and at the end of each test. The quinolone antibacterial ciprofloxacin was used as a control ("Cntl").
(§2) The numbers below the microorganism species indicate the nunbers of isolates tested. […] The MIC is defined as the lowest concentration of test compound yielding no growth (a slight haze or sparsely isolated colonies at the inoculum spot) as compared to the growth control containing no test compound.

[4] = system: Salmonella spp.; assay: In vitro MIC, agar dilution; assay type: cell-based; conditions: 23 isolates
Experimental: as §1, §2

[5] = system: P. aeruginosa (CiproS); assay: In vitro MIC, agar dilution; assay type: cell-based; conditions: P. aeruginosa (CiproS), 24 isolates
[6] = system: N. gonorrhoeae; assay: In vitro MIC, agar dilution; assay type: cell-based; conditions: N. gonorrhoeae, 12 isolates
[7] = mice, single intraperitoneal injection, 21 days
[8] = system: S. pneumoniae (PenR); assay: In vitro MIC, agar dilution; assay type: cell-based; conditions: S. pneumoniae (PenR), 25 isolates
[9] = system: M. pneumoniae; assay: In vitro MIC, agar dilution; assay type: cell-based; conditions: M. pneumoniae, 7 isolates
[10] = system: S. epidermidis (CiproR); assay: In vitro MIC, agar dilution; assay type: cell-based; conditions: S. epidermidis (CiproR), 11 isolates
[11] = system: H. influenzae; assay: In vitro MIC, agar dilution; assay type: cell-based; conditions: H. influenzae, 18 isolates
[12] = system: E. faecium (CiproR); assay: In vitro MIC, agar dilution; assay type: cell-based; conditions: E. faecium (CiproR), 2 isolates
[13] = system: Enterococcus spp. (VanR); assay: In vitro MIC, agar dilution; assay type: cell-based; conditions: Enterococcus spp. (VanR), 21 isolates
[14] = system: S. pneumoniae (CiproR); assay: In vitro MIC, agar dilution; assay type: cell-based; conditions: S. pneumoniae (CiproR), 3 isolates
[15] = system: S. aureus (CiproR); assay: In vitro MIC, agar dilution; assay type: cell-based; conditions: S. aureus (CiproR), 25 isolates
[16] = system: S. aureus (CiproS); assay: In vitro MIC, agar dilution; assay type: cell-based; conditions: S. aureus (CiproS), 21 isolates
[17] = system: M. catarrhalis; assay: In vitro MIC, agar dilution; assay type: cell-based; conditions: M. catarrhalis, 18 isolates
[18] = system: Legionella spp.; assay: microbe, parasite or virus in culture; assay type: cell-based
[19] = system: C. perfringens; assay: microbe, parasite or virus in culture; assay type: cell-based; conditions: C. perfringens, 13 isolates
[20] = system: Providencia spp.; assay: In vitro MIC, agar dilution; assay type: cell-based; conditions: Providencia spp., 28 isolates
[21] = system: M. avium; assay: In vitro MIC, agar dilution; assay type: cell-based; conditions: M. avium, 20 isolates
[22] = system: E. faecalis (VanS); assay: In vitro MIC, agar dilution; assay type: cell-based; conditions: E. faecalis (VanS), 17 isolates
[23] = system: S. epidermidis (CiproS); assay: In vitro MIC, agar dilution; assay type: cell-based; conditions: S. epidermidis (CiproS), 23 isolates
[24] = system: Enterobacter spp.; assay: In vitro MIC, agar dilution; assay type: cell-based; conditions: Enterobacter spp., 35 isolates
[25] = system: H. pylori; assay: In vitro MIC, agar dilution; assay type: cell-based; conditions: H. pylori, 17 isolates
[26] = system: C. freundii; assay: In vitro MIC, agar dilution; assay type: cell-based; conditions: C. freundii, 20 isolates
[27] = system: S. pneumoniae (PenS); assay: In vitro MIC, agar dilution; assay type: cell-based; conditions: S. pneumoniae (PenS), 20 isolates
[28] = system: E. faecium (CiproS); assay: In vitro MIC, agar dilution; assay type: cell-based; conditions: E. faecium (CiproS), 16 isolates
[29] = system: B. fragilis; assay: In vitro MIC, agar dilution; assay type: cell-based; conditions: B. fragilis, 18 isolates
[30] = system: P. mirabilis; assay: In vitro MIC, agar dilution; assay type: cell-based; conditions: P. mirabilis, 20 isolates
[31] = system: P. aeruginosa (CiproR); assay: In vitro MIC, agar dilution; assay type: cell-based; conditions: P. aeruginosa (CiproR), 20 isolates
[32] = system: Klebsiella spp.; assay: In vitro MIC, agar dilution; assay type: cell-based; conditions: Klebsiella spp., 29 isolates

Q: With `Cc1c(N2CC[C@H](N)C2)c(F)cn2c(=O)c(C(=O)O)cc(C3CC3)c12.Cl` [Example 3, 1-cyclopropyl-8-(3(S)-3-amino-1-pyrrolidinyl)-7-fluoro-9-methyl-4-oxo-4H-quinolizine-3-carboxylic acid hydrochloride] as the compound, how does the MIC50 [1] read?
A: Its MIC50 is 0.03 µg/mL.

Q: And the MIC90 [1]?
A: The MIC90 was 0.06 µg/mL.

Q: What about the “MIC Range” value [1] of the same compound?
A: The value was 0.015 to 0.06 µg/mL.

Q: And the MIC50 [2]?
A: Its MIC50 is 0.25 µg/mL.

Q: And the MIC90 [2]?
A: The MIC90 was 0.5 µg/mL.

Q: And the “MIC Range” value [2]?
A: Its value is 0.25 to 0.5 µg/mL.

Q: And the MIC50 [3]?
A: Its MIC50 is 0.03 µg/mL.

Q: And the MIC90 [3]?
A: The MIC90 was 0.06 µg/mL.

Q: What about the MIC50 [4] of the same compound?
A: Its MIC50 is 0.06 µg/mL.

Q: What about the MIC90 [4] of the same compound?
A: Its MIC90 is 0.06 µg/mL.

Q: And the MIC50 [5]?
A: The MIC50 was 0.25 µg/mL.

Q: What about the MIC90 [5] of the same compound?
A: Its MIC90 is 1 µg/mL.

Q: What about the “MIC Range” value [5] of the same compound?
A: Its value is 0.12 to 1 µg/mL.

Q: What about the MIC50 [6] of the same compound?
A: The MIC50 was 0.008 µg/mL.

Q: What about the MIC90 [6] of the same compound?
A: Its MIC90 is 0.03 µg/mL.

Q: And the “MIC Range” value [6]?
A: The value was 0.008 to 0.06 µg/mL.

Q: And the LD50 [7]?
A: Its LD50 is 105.0 mg/kg.

Q: What about the MIC50 [8] of the same compound?
A: The MIC50 was 0.12 µg/mL.

Q: And the MIC90 [8]?
A: The MIC90 was 0.12 µg/mL.

Q: And the “MIC Range” value [8]?
A: Its value is 0.06 to 0.12 µg/mL.

Q: What about the “MIC Range” value [9] of the same compound?
A: Its value is 0.06 to 0.12 µg/mL.

Q: And the MIC50 [10]?
A: The MIC50 was 0.25 µg/mL.

Q: What about the MIC90 [10] of the same compound?
A: Its MIC90 is 1 µg/mL.

Q: And the “MIC Range” value [10]?
A: Its value is 0.25 to 2 µg/mL.

Q: What about the MIC50 [11] of the same compound?
A: Its MIC50 is 0.015 µg/mL.

Q: And the MIC90 [11]?
A: The MIC90 was 0.03 µg/mL.

Q: What about the “MIC Range” value [11] of the same compound?
A: The value was 0.008 to 0.06 µg/mL.

Q: And the “MIC Range” value [12]?
A: The value was 1 to 4 µg/mL.

Q: What about the MIC50 [13] of the same compound?
A: The MIC50 was 0.5 µg/mL.

Q: And the MIC90 [13]?
A: The MIC90 was 1 µg/mL.

Q: What about the “MIC Range” value [13] of the same compound?
A: The value was 0.12 to 4 µg/mL.

Q: And the “MIC Range” value [14]?
A: Its value is 0.12 to 0.25 µg/mL.

Q: What about the MIC50 [15] of the same compound?
A: The MIC50 was 0.25 µg/mL.

Q: What about the MIC90 [15] of the same compound?
A: The MIC90 was 0.5 µg/mL.

Q: What about the “MIC Range” value [15] of the same compound?
A: The value was 0.06 to 2 µg/mL.

Q: What about the “MIC Range” value [16] of the same compound?
A: Its value is 0.015 to 0.06 µg/mL.

Q: What about the MIC50 [17] of the same compound?
A: The MIC50 was 0.06 µg/mL.

Q: What about the MIC90 [17] of the same compound?
A: Its MIC90 is 0.06 µg/mL.

Q: What about the “MIC Range” value [17] of the same compound?
A: The value was 0.015 to 0.06 µg/mL.

Q: What about the MIC50 [18] of the same compound?
A: Its MIC50 is 0.5 µg/mL.

Q: What about the MIC90 [18] of the same compound?
A: The MIC90 was 1 µg/mL.

Q: What about the “MIC Range” value [18] of the same compound?
A: Its value is 0.5 to 1 µg/mL.

Q: What about the MIC50 [19] of the same compound?
A: Its MIC50 is 0.12 µg/mL.

Q: What about the MIC90 [19] of the same compound?
A: Its MIC90 is 0.25 µg/mL.

Q: And the “MIC Range” value [19]?
A: Its value is 0.06 to 0.25 µg/mL.

Q: What about the MIC50 [20] of the same compound?
A: Its MIC50 is 0.12 µg/mL.

Q: What about the MIC90 [20] of the same compound?
A: The MIC90 was 0.25 µg/mL.

Q: And the “MIC Range” value [20]?
A: The value was 0.03 to 1 µg/mL.

Q: And the MIC50 [21]?
A: Its MIC50 is 4 µg/mL.

Q: And the MIC90 [21]?
A: The MIC90 was 16 µg/mL.

Q: And the “MIC Range” value [21]?
A: Its value is 1 to 32 µg/mL.

Q: What about the MIC50 [22] of the same compound?
A: The MIC50 was 0.25 µg/mL.

Q: What about the MIC90 [22] of the same compound?
A: Its MIC90 is 0.25 µg/mL.

Q: What about the “MIC Range” value [22] of the same compound?
A: Its value is 0.12 to 0.25 µg/mL.

Q: What about the MIC50 [23] of the same compound?
A: The MIC50 was 0.03 µg/mL.

Q: And the MIC90 [23]?
A: The MIC90 was 0.06 µg/mL.

Q: And the “MIC Range” value [23]?
A: Its value is 0.015 to 0.06 µg/mL.

Q: What about the MIC50 [24] of the same compound?
A: The MIC50 was 0.06 µg/mL.

Q: What about the MIC90 [24] of the same compound?
A: Its MIC90 is 0.12 µg/mL.

Q: And the “MIC Range” value [24]?
A: The value was 0.03 to 0.5 µg/mL.

Q: What about the MIC50 [25] of the same compound?
A: The MIC50 was 0.12 µg/mL.

Q: What about the MIC90 [25] of the same compound?
A: Its MIC90 is 0.25 µg/mL.

Q: What about the “MIC Range” value [25] of the same compound?
A: The value was 0.06 to 0.5 µg/mL.

Q: What about the MIC50 [26] of the same compound?
A: Its MIC50 is 0.06 µg/mL.

Q: And the MIC90 [26]?
A: Its MIC90 is 0.25 µg/mL.

Q: And the “MIC Range” value [26]?
A: Its value is 0.015 to 0.25 µg/mL.

Q: What about the MIC50 [27] of the same compound?
A: The MIC50 was 0.06 µg/mL.

Q: And the MIC90 [27]?
A: The MIC90 was 0.12 µg/mL.

Q: And the “MIC Range” value [27]?
A: The value was 0.06 to 0.12 µg/mL.

Q: And the MIC50 [28]?
A: Its MIC50 is 0.5 µg/mL.

Q: And the MIC90 [28]?
A: Its MIC90 is 1 µg/mL.

Q: What about the “MIC Range” value [28] of the same compound?
A: The value was 0.25 to 1 µg/mL.

Q: And the MIC50 [29]?
A: Its MIC50 is 0.25 µg/mL.

Q: What about the MIC90 [29] of the same compound?
A: The MIC90 was 0.5 µg/mL.

Q: And the “MIC Range” value [29]?
A: The value was 0.12 to 0.5 µg/mL.

Q: And the MIC50 [30]?
A: Its MIC50 is 0.12 µg/mL.

Q: What about the MIC90 [30] of the same compound?
A: The MIC90 was 0.25 µg/mL.

Q: What about the “MIC Range” value [30] of the same compound?
A: The value was 0.06 to 0.25 µg/mL.

Q: And the MIC50 [31]?
A: The MIC50 was 16 µg/mL.

Q: And the MIC90 [31]?
A: The MIC90 was 32 µg/mL.

Q: And the “MIC Range” value [31]?
A: Its value is 16 to 64 µg/mL.

Q: And the MIC50 [32]?
A: Its MIC50 is 0.12 µg/mL.

Q: What about the MIC90 [32] of the same compound?
A: Its MIC90 is 0.12 µg/mL.

Q: What about the “MIC Range” value [32] of the same compound?
A: Its value is 0.015 to 0.5 µg/mL.
